Source: patent US20150218534A1, “MODIFIED DNA POLYMERASE” (TOYOBO CO., LTD., priority 2012, published 2015)

Legend:
[1] = test system: human genomic DNA (about 1.3 kb) with dUTP added; experiment: Evaluation of uracil (dUTP) sensitivity by PCR with dUTP added to the reaction; assay type: biochemical; conditions: for Evaluation of dUTP resisitance on a 11-point scale: closer to 0 = stronger sensitivity to dUTP, closer to 10 = lower sensitivity, summary of Examples 1 to 3; for dUTP resistance: dUTP added to 0.5, 5, 50, 100, 200 μM, about 1.3 kb, 30 cycles, 1 U enzyme
How it was run: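 Uracil sensitivity is judged by whether a roughly 1.3 kb band still appears on ethidium bromide-stained agarose gel. Tolerated dUTP was tested at final 0.5 to 200 μM (0.5, 5, 50, 100, 200 μM), using 10 ng human genomic DNA, 1 U enzyme, 0.2 mM dNTPs and 1.5 mM MgSO4 in KOD-Plus-Ver. 2 buffer. Cycling: 94° C for 30 s, then 30 cycles of 98° C/65° C/68° C.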

[2] = test system: 482 bp of human β-globin; experiment: PCR amplification of 482 bp of human β-globin with dUTP in place of dTTP; assay type: biochemical; parameters: key to Results of PCR in the presence of dUTP 481 bp: A: Amplified; B: Amplified (faint band); C: Not amplified; conditions: for Results of PCR in the presence of dUTP 481 bp: dTTP replaced by dUTP, 35 cycles; for PCR amplification of 482 bp with dUTP: 100% dUTP instead of dTTP (FIGS. 5 to 8)
Protocol: 482 bp of human β-globin was amplified to compare the amplification difference between the case of using dTTP and the case of using dUTP in PCR, and the sensitivity to dUTP was examined. For amplification, each enzyme was used after being mixed with 1 μg of a KOD antibody per U of the enzyme. For PCR, components included in KOD-Plus-Ver. 2 (produced by Toyobo Co. Ltd.) were used. General dNTPs (dATP, dTTP, dCTP, dGTP) in an amount of 0.2 mM were added to 50 μl of individual reaction solutions, and dNTPs (dATP, dUTP, dCTP, dGTP) in an amount of 0.2 mM in which dTTP was replaced by dUTP were added to 50 μl of individual reaction solutions. The reaction solutions contained 1× PCR buffer, 1.5 mM MgSO4, primers represented by SEQ ID NOs: 27 and 28 in an amount of 15 pmol for amplifying […], 10 ng of human genomic DNA (produced by Roche), and 1 U of each respective enzyme mixed with the antibody. PCR was performed using a GeneAmp PCR system 9700 (produced by Applied Biosystems) on the following schedule: preliminary reaction at 94° C. for 2 minutes, followed by 35 cycles, each cycle consisting of 98° C. for 10 seconds and 68° C. for 1 minute. After the completion of each individual reaction, each of the resulting reaction solutions was analyzed using to a DNA-1000 kit for MultiNA (produced by Shimadzu Corporation) to confirm amplified DNA fragments. FIGS. 5 and 6 show the results.

Substance	Evaluation of dUTP resisitance on a 11-point scale [1]	dUTP resistance [1] [µM]	Results of PCR in the presence of dUTP 481 bp [2]	PCR amplification of 482 bp with dUTP [2]	PCR amplification of 482 bp with dUTP ([2]; listed as V93K/Y7A)
KOD I142R/Y7A/V93K: KOD I142R (exo(−)) mutant with Y7A and V93K	10	>200	A		
KOD D141A/E143A/Y7A/P36H: KOD D141A/E143A (exo(−)) mutant with Y7A and P36H	10	>200	A		
KOD D141A/E143A/P36H: KOD D141A/E143A (exo(−)) mutant with P36H	8	>200	A		
KOD N210D/P36R: KOD N210D (exo(−)) mutant with P36R	8	>200	A		
KOD H147E/V93Q: KOD H147E (exo(+)) mutant with V93Q	4	100	A		
KOD I142R/Y7A: KOD I142R (exo(−)) mutant with Y7A	2	5	C		
KOD N210D/V93R: KOD N210D (exo(−)) mutant with V93R	8	>200	A		
KOD P36R/V93K: modified KOD DNA polymerase with P36R and V93K	0	0	C		
KOD Y7A/P115Δ: modified KOD DNA polymerase with Y7A and lacking P115	0	0	C		
KOD I142R/Y7A/P36R: KOD I142R (exo(−)) mutant with Y7A and P36R	8	>200	A		
KOD I142R/Y7A/P36H: KOD I142R (exo(−)) mutant with Y7A and P36H	8	>200	A		
KOD H147E/P36H: KOD H147E (exo(+)) mutant with P36H	6	>200	A		
KOD H147E/Y7A/P36H: KOD H147E (exo(+)) mutant with Y7A and P36H	8	>200	A		
KOD N210D/P36H: KOD N210D (exo(−)) mutant with P36H	8	>200	A		
KOD D141A/E143A/Y7A/V93K: KOD D141A/E143A (exo(−)) mutant with Y7A and V93K	10	>200	A		
KOD N210D/Y7A/P36H: KOD N210D (exo(−)) mutant with Y7A and P36H	10	>200	A		
KOD H147E/P36H/V93K: KOD H147E (exo(+)) mutant with P36H and V93K	8	>200	A		
KOD N210D/Y7A/P115Δ: KOD N210D (exo(−)) mutant with Y7A and lacking P115	0	0	C		
KOD D141A/E143A/Y7A: KOD D141A/E143A (exo(−)) mutant with Y7A	2	5	C		
KOD D141A/E143A/P36R: KOD D141A/E143A (exo(−)) mutant with P36R	8	>200	A		

Substance	Evaluation of dUTP resisitance on a 11-point scale [1]	dUTP resistance [1] [µM]	Results of PCR in the presence of dUTP 481 bp [2]	PCR amplification of 482 bp with dUTP [2]	PCR amplification of 482 bp with dUTP ([2]; listed as V93K/Y7A)
KOD H147E/Y7A/P36R: KOD H147E (exo(+)) mutant with Y7A and P36R	8	>200	A		
KOD N210D/Y7A: KOD N210D (exo(−)) mutant with Y7A	2	5	C		
KOD N210D/V93Q: KOD N210D (exo(−)) mutant with V93Q	6	>200	A		
KOD Y7A/V93K: modified KOD DNA polymerase with Y7A and V93K	8	>200	A	allowed for PCR amplification	greatly improve the amplification amount, compared to V93K
KOD P115Δ: modified KOD DNA polymerase lacking P115	0	0	C		
KOD H147E/V93K: KOD H147E (exo(+)) mutant with V93K	6	>200	A		
KOD H147E/P36R/V93K: KOD H147E (exo(+)) mutant with P36R and V93K	0	0	C		
KOD H147E/P36R: KOD H147E (exo(+)) mutant with P36R	6	>200	A		
KOD N210D/Y7A/P36R: KOD N210D (exo(−)) mutant with Y7A and P36R	10	>200	A		
KOD D141A/E143A/V93K: KOD D141A/E143A (exo(−)) mutant with V93K	8	>200	A		
KOD H147E/Y7A: KOD H147E (exo(+)) mutant with Y7A	2	0.5	C		
KOD H147E/Y7A/P115Δ: KOD H147E (exo(+)) mutant with Y7A and lacking P115	0	0	C		
KOD I142R/P36R: KOD I142R (exo(−)) mutant with P36R	8	>200	A		
KOD I142R/V93K: KOD I142R (exo(−)) mutant with V93K	8	>200	A		
KOD H147E/V93R: KOD H147E (exo(+)) mutant with V93R	6	>200	A		
KOD Y7A/P36R: modified KOD DNA polymerase with Y7A and P36R	7	>200	A	allowed for PCR amplification	
KOD N210D/Y7A/V93K: KOD N210D (exo(−)) mutant with Y7A and V93K	10	>200	A		
KOD N210D/V93K: KOD N210D (exo(−)) mutant with V93K	8	>200	A		
KOD D141A/E143A/Y7A/P36R: KOD D141A/E143A (exo(−)) mutant with Y7A and P36R	10	>200	A		
